The results in this text go back to publication PMC9598656, “In Vitro Activity of Robenidine Analogues NCL259 and NCL265 against Gram-Negative Pathogens” (Antibiotics, 2022).

Assay [1] relates to P. aeruginosa ATCC 27853. Put plainly: MIC, broth micro-dilution. The assay is classed as cell-based, Pseudomonas aeruginosa. The note with it: Pseudomonas aeruginosa, ATCC27853, read-out: MIC, Single Drug. As for the experimental part:
(§1) A variety of Gram-negative reference strains (E. coli ATCC 25922, E. coli ATCC 10763, P. aeruginosa PAO1, P. aeruginosa ATCC 27853, A. baumannii ATCC 12457, A. baumannii ATCC 19606, K. pneumoniae ATCC 4352 and K. pneumoniae ATCC 33495) were used for initial screening and combination testing with PMB. The organisms were speciated using biochemical testing and MALDI-TOF mass spectrometry (Bruker, Preston, VIC, Australia). Activity testing of NCL259 and NCL265 was also carried out on 51 extraintestinal clinical E. coli isolates from companion animals, and 83 porcine and bovine enterotoxigenic E. coli (ETEC) isolates from the Australian Centre for Antimicrobial Resistance Ecology collection. E. coli wild-type (BW 25113) and its mutant BW 25113∆AcrB, in which the inner membrane component AcrB of the tripartite multidrug efflux system AcrA/AcrB/TolC has been deleted, were obtained from the bacterial collection held at Health and Biomedical Innovation, Clinical and Health Sciences, The University of South Australia. All isolates were cultured on sheep blood agar (SBA) plates at 37 °C for 18 h before being subcultured into Luria Bertaini (LB) (Oxoid, Scoresby, VIC, Australia) broth and grown to A600nm = 0.5 (equivalent to approx. 1.5 × 10^8 colony-forming units (CFU)/mL).
(§2) MICs for NCL259 and NCL265 (serial two-fold dilutions commencing at 256 µg/mL) were determined (in duplicate) in round bottom 96–well microtitre trays (Sarstedt 82.1582.001), using the broth micro-dilution method recommended by the Clinical and Laboratory Standards Institute (CLSI). We have shown previously that robenidine can chelate calcium ions from cation-adjusted Mueller-Hinton broth, which causes the loss of activity of robenidine. Therefore, LB broth was used in this study. Additionally, considering the low solubility of robenidine and its analogues in aqueous solutions, two-fold serial dilutions of stock solutions of these compounds were prepared in 100% DMSO [21]. The MIC for ampicillin against each isolate was determined for each test to serve as an internal quality control. The MICs of isolates were determined by visual reading and using an EnSpire Multimode Plate Reader 2300 at A600nm.
On the technique in general: Dilution methods test growth across graded concentrations, often in twofold steps.

The subject of assay [2] is P. aeruginosa PAO1. As to the kind of experiment: MIC, broth micro-dilution. The note with it: Pseudomonas aeruginosa, read-out: MIC, Single Drug. It is filed as cell-based, Pseudomonas aeruginosa. As for the experimental part:
as §1, §2

The subject of assay [3] is K. pneumoniae ATCC 33495. Put plainly: MIC, broth micro-dilution. The assay is classed as cell-based, Klebsiella pneumoniae. To be noted: Klebsiella pneumoniae, ATCC33495, read-out: MIC, Single Drug. As for the experimental part:
as §1, §2

In assay [4] the test system is K. pneumoniae ATCC 4352. Put plainly: MIC, broth micro-dilution. It is filed as cell-based, Klebsiella pneumoniae. To be noted: Klebsiella pneumoniae, ATCC4352, read-out: MIC, Single Drug. As for the experimental part: as §1, §2
Assay [5] relates to A. baumannii ATCC 12457. As to the kind of experiment: Checkerboard assay with PMB. The assay is classed as cell-based, Acinetobacter baumannii. The note with it: for MIC, Combination: NCL259 or NCL265 with PMB; for Combination Effect / FICI: with PMB. As for the experimental part: (§3) MICs of NCL259 or NCL265 in the presence of the efflux pump inhibitor, PAβN were determined using a checkerboard assay. […] Briefly, a two-fold serial dilution of each antimicrobial solution was prepared in its appropriate solvent (e.g., DMSO for robenidine analogues and Milli-Q water for PAβN), and 1 μL of each dilution was added from wells 12 to 3 (12.8–0.25 μg/mL for robenidine analogues, and 32–2 μg/mL for PAβN). Thereafter, 89 μL of LB broth was added to each well followed by the addition of 10 μL of bacterial suspension (1–5 × 10^6 CFU/mL) to each well. In this manner, the final concentration of DMSO in each well was 1%. The plate was subsequently incubated at 37 °C for 24 h. The resazurin assay was used for assessment of drug susceptibility of NCL259 and NCL265 (Supplementary Table S1–S6). The same method was also used to test the MICs of NCL259 or NCL265 in the presence of PMB against a range of Gram-negative reference strains (E. coli ATCC 25922, E. coli ATCC 10763, P. aeruginosa PAO1, P. aeruginosa ATCC 27853, A. baumannii ATCC 12457, A. baumannii ATCC 19606, K. pneumoniae ATCC 4352 and K. pneumoniae ATCC 33495). Stock solutions were prepared prior to use (25.6–0.25 mg/mL for robenidine analogues; 12.8–0.25 mg/mL for PMB). The interaction of two antibiotics was calculated as the fractional inhibitory concentration index (FICI) using the following formula:(1) FICI=MICA in combination/MICA alone+MICB in combination/MICB alone where A is NCL259 or NCL265 and B is PAβN or PMB. According to FICI calculations, the interaction between two compounds were interpreted as follows: synergistic (FICI ≤ 0.5); additive or partially synergistic (0.5 < FICI ≤ 1); indifferent (1 < FICI ≤ 4); and antagonistic (FICI > 4), as described previously. The dose reduction index (DRI) was used to describe the difference between the effective doses of NCL259 or NCL265 in combination with PMB or PAβN in comparison to their individual doses, using the following formula:(2) DRI=MICA alone/MICA in combination
(§4) Evaluation of DRI is important clinically because it can allow the dose of a potentially toxic drug to be lowered in combination with another compound without reducing the drug’s efficacy. A DRI higher than 1 is viewed as beneficial.

The subject of assay [6] is A. baumannii ATCC 19606. Put plainly: Checkerboard assay with PMB. The assay is classed as cell-based, Acinetobacter baumannii. To be noted: for MIC, Combination: NCL259 or NCL265 with PMB; for Combination Effect / FICI: with PMB. As for the experimental part:
as §3, §4

Assay [7] relates to K. pneumoniae 13GNB–429. As to the kind of experiment: Checkerboard assay with PAβN. The assay is classed as cell-based, Klebsiella pneumoniae. To be noted: for concentration at the marked interaction: resazurin. As for the experimental part:
as §3, §4

The subject of assay [8] is Caco-2 (human colorectal adenocarcinoma cell line). Put plainly: In vitro cytotoxicity, WST-1. It is filed as cell-based. To be noted: Caco-2, 24 h. In general terms: Tetrazolium assays rely on reduction of a dye to a coloured formazan, in cell work by metabolically active cells.
In assay [9] the test system is K. pneumoniae 13GNB–429, K. pneumoniae 13GNB–550 and K. oxytoca 13GNB–582. As to the kind of experiment: MIC, three resistant Klebsiella isolates. It is filed as cell-based. To be noted: three resistant Klebsiella spp. isolates. As for the experimental part:
as §2

Where [10] appears, read: K. pneumoniae 13GNB–429, PAβN + NCL265.
Setting [11] is: Table S4, NCL265 + PAβN, replicate 1.
[12] abbreviates: Table S4, NCL265 + PAβN, replicate 2.
Setting [13] is: first of two independent experiments.
The mark [14] stands for this setting: second of two independent experiments.
[15] abbreviates: K. pneumoniae 13GNB–429, PAβN + NCL259.
Where [16] appears, read: Table S1, NCL259 + PAβN, replicate 1.
Where [17] appears, read: Table S1, NCL259 + PAβN, replicate 2.

In brackets after ≈: the same amount, converted by molar mass. Like-named read-outs stand apart in the source and are kept apart here. A value given as a limit tells only on which side of the number the result lay.

In general, MIC refers to the lowest concentration found to suppress growth. One may read the IC50 as the concentration at which inhibition is half-maximal. As for `[H]/N=C(\N)NN=C(CCCCCC)c1ccc(Cl)cc1` [NCL265, (E)-2-(1-(4-chlorophenyl)heptylidene)hydrazine-1-carboximidamide], the minimum inhibitory concentration (MIC) was 32 µg/mL in assay [1]; 64 µg/mL in assay [2]; 64 µg/mL in assay [3]; 2 µg/mL in assay [4]; more than 256 µg/mL in [9]; more than 256 µg/mL in assay [9] (read-out: MIC). The “MIC, Combination” value in assay [5] worked out at 0.5 µg/mL; in [6], 0.5 µg/mL; in assay [7] (setting [10]), 4 µg/mL. Moreover, the “Dose Reduction Index (DRI) PMB:NCL265” value in assay [5] (PMB + NCL265) and in assay [6] (PMB + NCL265) was 4 throughout. In addition, the “Combination Effect” value in assay [5] is “Additivity (additive or partially synergistic, 0.5 < FICI ≤ 1)”; in assay [6], “Additivity (additive or partially synergistic, 0.5 < FICI ≤ 1)”; in assay [7] (setting [10]), “Additivity (additive or partially synergistic, 0.5 < FICI ≤ 1)”. In addition, the FICI is recorded as 0.75 in [5], 0.75 in assay [6] and 0.516 in assay [7] (setting [10]). For the same compound, the “DRI PAβN:NCL265” value in assay [7] (K. pneumoniae 13GNB–429) turned out to be 64. In addition, the interaction result in assay [7] (setting [11]) and in assay [7] (setting [12]) was “synergistic (synergistic (FICI ≤ 0.5))” throughout. The “concentration at the marked interaction” value in [7] (setting [11]) and in assay [7] (setting [12]) was 8 µg/mL throughout. The half-maximal inhibitory concentration (IC50) in assay [8] (setting [13]) is less than 1 µg/mL; in assay [8] (setting [14]), less than 2 µg/mL.
For the compound `[H]/N=C(\N)NN=C(CC1CCCCC1)c1ccc(Cl)cc1` [NCL259, (E)-2-(1-(4-chlorophenyl)-2-cyclohexylethylidene)hydrazine-1-carboximidamide], the MIC in [1] is 64 µg/mL; in assay [2] it was 64 µg/mL; in assay [3], 64 µg/mL; in assay [4] it was 8 µg/mL; in [9], more than 256 µg/mL; in [9] (read-out: MIC), more than 256 µg/mL. The “MIC, Combination” value in assay [5] worked out at 1 µg/mL; in assay [6], 1 µg/mL; in [7] (setting [15]) it was 16 µg/mL. Besides, the “Dose Reduction Index (DRI) PMB:NCL259” value in [5] (PMB + NCL259) and in [6] (PMB + NCL259) was 8 throughout. In addition, the “Combination Effect” value is “Additivity (additive or partially synergistic, 0.5 < FICI ≤ 1)” in assay [5]; “Additivity (additive or partially synergistic, 0.5 < FICI ≤ 1)” in assay [6]; “Synergism (synergistic, FICI ≤ 0.5)” in [7] (setting [15]). The FICI in assay [5] and in [6] was 0.625 in each case. Moreover, the “DRI PAβN:NCL259” value in assay [7] (K. pneumoniae 13GNB–429) worked out at 16. Besides, the interaction result in assay [7] (setting [16]) and in assay [7] (setting [17]) was “synergistic (synergistic (FICI ≤ 0.5))” in each case. For the same compound, the “concentration at the marked interaction” value in assay [7] (setting [16]) and in assay [7] (setting [17]) was 16 µg/mL in each case. Besides, the IC50 in assay [8] (setting [13]) was less than 1 µg/mL; in assay [8] (setting [14]) it was 3 µg/mL (≈ 10.2 µM).
